Results published in PubChem BioAssay (NCI).
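Values below derive from 48-hour exposures of cells grown in 96-well plates, with endpoints linearly interpolated between the two concentrations bracketing the appropriate inhibition level. TGI marks complete inhibition of growth.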

What was measured:
Assay in all cases: NCI tumour cell line growth inhibition, 48 h
RXF 393 renal = system: RXF 393 renal
SNB-19 CNS = system: SNB-19 CNS
MOLT-4 leukemia = system: MOLT-4 leukemia
M19-MEL melanoma = system: M19-MEL melanoma
SK-MEL-2 melanoma = system: SK-MEL-2 melanoma
K-562 leukemia = system: K-562 leukemia
U251 CNS = system: U251 CNS
SNB-78 CNS = system: SNB-78 CNS
SK-MEL-28 melanoma = system: SK-MEL-28 melanoma
LXFL 529 NSCLC = system: LXFL 529 NSCLC
NCI-H460 lung = system: NCI-H460 lung
NCI-H23 lung = system: NCI-H23 lung
SN12C renal = system: SN12C renal
786-0 renal = system: 786-0 renal
SF-539 CNS = system: SF-539 CNS
NCI-H522 lung = system: NCI-H522 lung
COLO 205 colon = system: COLO 205 colon
HT29 colon = system: HT29 colon
M14 melanoma = system: M14 melanoma
SW-620 colon = system: SW-620 colon
SK-MEL-5 melanoma = system: SK-MEL-5 melanoma
MALME-3M melanoma = system: MALME-3M melanoma
SK-OV-3 ovarian = system: SK-OV-3 ovarian
DMS 273 small cell lung = system: DMS 273 small cell lung
KM12 colon = system: KM12 colon
RXF-631 renal = system: RXF-631 renal
DLD-1 colon = system: DLD-1 colon
A549 NSCLC = system: A549 NSCLC
HOP-92 NSCLC = system: HOP-92 NSCLC
TK-10 renal = system: TK-10 renal
SNB-75 CNS = system: SNB-75 CNS
HCT-15 colon = system: HCT-15 colon
UACC-257 melanoma = system: UACC-257 melanoma
NCI-H226 lung = system: NCI-H226 lung
OVCAR-8 ovarian = system: OVCAR-8 ovarian
CCRF-CEM leukemia = system: CCRF-CEM leukemia
SF-295 CNS = system: SF-295 CNS
DMS 114 small cell lung = system: DMS 114 small cell lung
A498 renal = system: A498 renal
HOP-62 NSCLC = system: HOP-62 NSCLC
UO-31 renal = system: UO-31 renal
SF-268 CNS = system: SF-268 CNS
ACHN renal = system: ACHN renal
OVCAR-4 ovarian = system: OVCAR-4 ovarian
EKVX NSCLC = system: EKVX NSCLC
OVCAR-5 ovarian = system: OVCAR-5 ovarian
HCC-2998 colon = system: HCC-2998 colon
OVCAR-3 ovarian = system: OVCAR-3 ovarian
UACC-62 melanoma = system: UACC-62 melanoma
XF 498 CNS = system: XF 498 CNS
RPMI-8226 leukemia = system: RPMI-8226 leukemia
IGROV1 ovarian = system: IGROV1 ovarian
KM20L2 colon = system: KM20L2 colon
HOP-18 NSCLC = system: HOP-18 NSCLC
HCT-116 colon = system: HCT-116 colon
LOX IMVI melanoma = system: LOX IMVI melanoma
P388 leukemia = system: P388 leukemia
SN12K1 renal = system: SN12K1 renal
P388/ADR leukemia = system: P388/ADR leukemia
NCI/ADR-RES ovarian = system: NCI/ADR-RES ovarian
MCF7 breast = system: MCF7 breast
HL-60(TB) leukemia = system: HL-60(TB) leukemia

Structure (SMILES): CC(C)=CC1CCc2ccccc2N1S(=O)(=O)c1ccc(C)cc1 (stereo not given)
- TGI (RXF 393 renal): 5.14 µM
- TGI (SNB-19 CNS): > 100 µM
- TGI (MOLT-4 leukemia): 10.3 µM
- TGI (M19-MEL melanoma): 13.7 µM
- TGI (SK-MEL-2 melanoma): 7.12 µM
- TGI (K-562 leukemia): > 100 µM
- TGI (U251 CNS): 4.58 µM
- TGI (SNB-78 CNS): > 100 µM
- TGI (SK-MEL-28 melanoma): > 40.1 µM
- TGI (LXFL 529 NSCLC): > 47.2 µM
- TGI (NCI-H460 lung): 8.02 µM
- TGI (NCI-H23 lung): 5.7 µM
- TGI (SN12C renal): > 100 µM
- TGI (786-0 renal): 12.1 µM
- TGI (SF-539 CNS): 3.14 µM
- TGI (NCI-H522 lung): 5.77 µM
- TGI (COLO 205 colon): 5.4 µM
- TGI (HT29 colon): 3.24 µM
- TGI (M14 melanoma): 7.38 µM
- TGI (SW-620 colon): > 100 µM
- TGI (SK-MEL-5 melanoma): 5.12 µM
- TGI (MALME-3M melanoma): 51.5 µM
- TGI (SK-OV-3 ovarian): > 100 µM
- TGI (DMS 273 small cell lung): 1.59 µM
- TGI (KM12 colon): 6.16 µM
- TGI (RXF-631 renal): > 100 µM
- TGI (DLD-1 colon): > 100 µM
- TGI (A549 NSCLC): 18.9 µM
- TGI (HOP-92 NSCLC): 7.61 µM
- TGI (TK-10 renal): > 31.6 µM
- TGI (SNB-75 CNS): > 25.1 µM
- TGI (HCT-15 colon): > 31.6 µM
- TGI (UACC-257 melanoma): 23.6 µM
- TGI (NCI-H226 lung): 6.05 µM
- TGI (OVCAR-8 ovarian): > 31.3 µM
- TGI (CCRF-CEM leukemia): > 100 µM
- TGI (SF-295 CNS): > 21.4 µM
- TGI (DMS 114 small cell lung): 4.12 µM
- TGI (A498 renal): 6.98 µM
- TGI (HOP-62 NSCLC): 14 µM
- TGI (UO-31 renal): > 100 µM
- TGI (SF-268 CNS): 85.8 µM
- TGI (ACHN renal): > 31.6 µM
- TGI (OVCAR-4 ovarian): > 31.6 µM
- TGI (EKVX NSCLC): > 100 µM
- TGI (OVCAR-5 ovarian): > 31.6 µM
- TGI (HCC-2998 colon): 7.95 µM
- TGI (OVCAR-3 ovarian): 4.25 µM
- TGI (UACC-62 melanoma): 16.1 µM
- TGI (XF 498 CNS): 26.8 µM
- TGI (RPMI-8226 leukemia): 5.07 µM
- TGI (IGROV1 ovarian): > 100 µM
- TGI (KM20L2 colon): 3.12 µM
- TGI (HOP-18 NSCLC): > 100 µM
- TGI (HCT-116 colon): 6.69 µM
- TGI (LOX IMVI melanoma): 12.6 µM

Structure (SMILES): CCCCCCCCC1=CCC(CN(C)C)C1=O (stereo not given)
- TGI (RXF 393 renal): 36 µM
- TGI (SNB-19 CNS): > 79 µM
- TGI (MOLT-4 leukemia): 48.2 µM
- TGI (M19-MEL melanoma): 32.3 µM
- TGI (SK-MEL-2 melanoma): 46.1 µM
- TGI (K-562 leukemia): 59 µM
- TGI (U251 CNS): 32.8 µM
- TGI (SNB-78 CNS): 46.4 µM
- TGI (SK-MEL-28 melanoma): 38.2 µM
- TGI (P388 leukemia): 46.5 µM
- TGI (NCI-H460 lung): 26.1 µM
- TGI (SN12K1 renal): 32.1 µM
- TGI (NCI-H23 lung): 39.2 µM
- TGI (SN12C renal): 32.4 µM
- TGI (SF-539 CNS): 36.9 µM
- TGI (NCI-H522 lung): 31.3 µM
- TGI (COLO 205 colon): 33.9 µM
- TGI (HT29 colon): 35.4 µM
- TGI (SW-620 colon): 36.6 µM
- TGI (SK-MEL-5 melanoma): 41.4 µM
- TGI (MALME-3M melanoma): 32.3 µM
- TGI (SK-OV-3 ovarian): > 100 µM
- TGI (DMS 273 small cell lung): 35.3 µM
- TGI (KM12 colon): 38 µM
- TGI (DLD-1 colon): 35 µM
- TGI (A549 NSCLC): > 100 µM
- TGI (HOP-92 NSCLC): 31 µM
- TGI (SNB-75 CNS): 32.1 µM
- TGI (HCT-15 colon): 33.7 µM
- TGI (UACC-257 melanoma): 45.7 µM
- TGI (NCI-H226 lung): > 76.3 µM
- TGI (OVCAR-8 ovarian): 34.9 µM
- TGI (CCRF-CEM leukemia): > 60.1 µM
- TGI (SF-295 CNS): > 60.7 µM
- TGI (DMS 114 small cell lung): 34.4 µM
- TGI (A498 renal): > 58.4 µM
- TGI (HOP-62 NSCLC): > 31.6 µM
- TGI (UO-31 renal): 39.2 µM
- TGI (P388/ADR leukemia): 15 µM
- TGI (SF-268 CNS): 34.7 µM
- TGI (OVCAR-4 ovarian): 50.8 µM
- TGI (EKVX NSCLC): 48.1 µM
- TGI (OVCAR-5 ovarian): > 72.4 µM
- TGI (HCC-2998 colon): 27.7 µM
- TGI (OVCAR-3 ovarian): 34.3 µM
- TGI (UACC-62 melanoma): 33.2 µM
- TGI (NCI/ADR-RES ovarian): 41.7 µM
- TGI (RPMI-8226 leukemia): 4.2 µM
- TGI (MCF7 breast): 13.6 µM
- TGI (IGROV1 ovarian): 35.9 µM
- TGI (KM20L2 colon): 47.4 µM
- TGI (HL-60(TB) leukemia): 33.8 µM
- TGI (HCT-116 colon): 36.5 µM
- TGI (LOX IMVI melanoma): 33.7 µM
